This note sets out measurements from patent US20260327216A1, “SUBSTITUTED OXAZOLONE COMPOUND FOR DECREASING LEVELS OF IKZF I-4 PROTEINS” (BRISTOL-MYERS SQUIBB COMPANY, priority 2023, published 2026).

The target in assay [1] is T1, IKZF4 Eos (Homo sapiens, UniProt Q96SW2+Q9H2S9).
T1 construct: endogenous in cells; host or cells: FACS-sorted human CD4+CD127lowCD25+ Treg cells from healthy leukopaks
Put plainly: Human Regulatory T Cell Reprogramming Assay, IKZF4. It is filed as cell-based. Particulars: 12-13 days; for IKZF4 Eos max % deg. observed / Dmax: human CD4+CD127lowCD25+ Treg cells, stimulated, 100% = complete degradation; for Dmax: Regulatory T cell, human, read-out: IKZF4 Eos max % deg. observed. The procedure: Human CD4^+ T cells were isolated from fresh healthy leukopaks (Stemcell Technologies) using the RosetteSep Human CD4^+ T cell enrichment cocktail (Stemcell Technologies) and Ficoll density gradient centrifugation. Leukopaks were diluted with an equal volume of phosphate-buffered saline (PBS [Gibco]) supplemented with 2% fetal bovine serum (FBS, VWR Lifescience) and incubated with RosetteSep Human CD4^+ T cell enrichment cocktail for 20 minutes before layering on Ficoll-Paque Plus solution (GE Health Care). The cell-rich interface layer was harvested and washed twice with PBS supplemented with 2% FBS. Regulatory T cells were then isolated manually using the EasySep Human CD4^+CD127^lowCD25^+ Regulatory T cell isolation kit (Stemcell Technologies) according to the manufacturer's instructions. Cells were rested overnight in Roswell Park Memorial Institute (RPMI) 1640 media (Gibco) supplemented with 10% FBS, Pen/Strep (Gibco), MEM-NEAA (Gibco), and sodium pyruvate (Gibco) in a humidified incubator (37° C., 5% CO2). Cells were then stained for CD4 (clone: RPA-T4, Biolegend), CD25 (clone: 2A3, BD Biosciences), and CD127 (clone: hIL-7R-M21, BD Biosciences). CD4^+CD127^lowCD25^+ cells were sorted on a BD FACS Aria Fusion sorter to a purity of 95% or greater. Sorted cells were immediately used or cryopreserved for downstream assays.
Fresh or cryopreserved FACS-sorted CD4^+CD127^lowCD25^+ Treg cells were cultured at 25,000-50,000 cells/well of 96-well round bottom plates in RPMI 1640 media (Gibco) supplemented with 10% FBS, Pen/Strep (Gibco), MEM-NEAA (Gibco), and sodium pyruvate (Gibco). Cells were stimulated with Treg Xpander beads (Thermo Fisher) at cells-to-beads ratio of 1:4 in the presence of 500 U/mL recombinant human IL-2 (Proleukin). Compounds were added at titrated doses and cells were incubated at 37°C., 5% CO2 for 12-13 days. Recombinant human IL-2 and compound were replenished every 2-3 days during the entire culture duration. On day 12 or 13, cells were restimulated with phorbol 12-myristate 13-acetate (PMA) and ionomycin in the presence of the protein transport inhibitors brefeldin A and monensin (eBioscience Cell Stimulation Cocktail plus protein transport inhibitors, 500×, Catalog number 00-4975-93) before proceeding with flow cytometry staining and analysis.
For flow cytometry staining, cells were washed twice with flow cytometry staining buffer (Thermo Fisher) and incubated in Human Tru-stain Fc block (Biolegend) for 10 minutes before adding eFluor780 viability dye (Thermo Fisher) and surface marker antibody cocktail for 30 minutes at 4° C. Cells were then fixed and permeabilized by incubation with FoxP3 transcription factor staining buffer (Thermo Fisher) for 30 minutes at 4° C. as per the kit manufacturer's instructions. Cells were washed twice with the Perm/Wash buffer supplied in the kit as per the manufacturer's instructions and incubated overnight at 4° C. with an intracellular antibody cocktail comprised of antibodies specific for the transcription factors shown in Table C. Cells were washed twice with Perm/Wash buffer and resuspended in flow cytometry staining buffer (Thermo Fisher) prior to acquisition. Sample acquisition and analysis was performed using a BD LSRFortessa (BD Biosciences) flow cytometer. Single stain controls for each fluorochrome were prepared using UltraComp eBead Compensation Beads (Thermo Fisher). Data were analyzed using FlowJo version 10 and GraphPad Prism Software.
Table C-1 lists the maximum observed degradation of the IKZF2 protein and IKZF4 protein as measured in the Human Regulatory T Cell Reprogramming assay. The results in Table C-1 were rounded to two digits. In the Human Regulatory T Cell Reprogramming assay, a value of 100% indicated no detectable protein remaining or complete degradation of the protein; and a value of 0% indicated no detectable degradation of the protein by the test compound.

Assay [2] addresses IKZF2 Helios (Homo sapiens, UniProt Q96SW2+Q9UKS7). Put plainly: Human Regulatory T Cell Degradation Assay, IKZF2. The format is cell-based. On the set-up: endogenous in cells; host or cells: FACS-sorted human CD4+CD127lowCD25+ Treg cells from healthy leukopaks. Particulars: human regulatory T cells, 20 hours; for Dmax: Regulatory T cell, 100% = complete degradation, read-out: IKZF2 Helios max % deg. observed. On the procedure: Cryopreserved human regulatory T cells were thawed in RPMI+10% FBS+20 ng/mL IL-2. After being spun at 1200 rpm for 5 mins, the cells were resuspended in RPMI+10% FBS+20 ng/mL and rested at 37° C. with 5% CO2 for 3 hours. The cells were then plated at 40,000 cells/well in 40 μL RPMI+10% FBS+20 ng/ml human IL-2 in a 384 well cell culture plate prior to using acoustic dispensing technology (ECHO 555) for adding compounds of interest. Cell cultures were incubated for 20 hours at 37° C. and 5% CO2. In order to facilitate analysis, cell cultures were spun down at 1200 rpm for 5 minutes and the supernatant was discarded using an EL406 plate washer. After washing three times with 70 μL PBS, cell pellets were resuspended in 50 μL of near IR viability staining solution (Life Technologies, Cat #L34975) and incubated for 30 minutes on ice protected from light. Cells were washed three times with 70 μL PBS+0.5% BSA using an EL406 plate washer. After shaking the plate to dislodge the cell pellet, cells were resuspended in 50 μL of Fixation Buffer (eBioScience FoxP3 buffer set 00-5523-00) for 60 minutes at room temperature. After centrifuging and discarding the supernatant, cells were permeabilized with 50 μL of permeabilization buffer (eBioScience FoxP3 buffer set 00-5523-00) for 10 minutes at room temperature. Following permeabilization, cells were spun down and the supernatant was replaced with 30 μL fluorescently labelled antibodies against the intracellular targets Helios (Helios-APC [BioLegend, Cat #137222, 1:50])]), Aiolos, and Ikaros 1× Permeabilization buffer and staining reactions were incubated for 1 bour at room temperature; protected from light. Subsequently, 30 μL of 1× Permeabilization buffer was added prior to centrifuging the cells and discarding the supernatant. Stained cells were resuspended in 30 μL of flow cytometry staining buffer (PBS+0.5% BSA) and analyzed using an Intellicyt Ique Plus flow cytometer.
Table B-1 lists the maximum observed degradation of the IKZF1 protein and IKZF2 protein as measured in the Human Regulatory T Cell Degradation assay. The results in Table B-1 were rounded to two digits. In the Human Regulatory T Cell Degradation assay, a value of 100% indicated no detectable protein remaining or complete degradation of the protein; and a value of 0% indicated no detectable degradation of the protein by the test compound.

T1 sequence (Q9H2S9 whole entry): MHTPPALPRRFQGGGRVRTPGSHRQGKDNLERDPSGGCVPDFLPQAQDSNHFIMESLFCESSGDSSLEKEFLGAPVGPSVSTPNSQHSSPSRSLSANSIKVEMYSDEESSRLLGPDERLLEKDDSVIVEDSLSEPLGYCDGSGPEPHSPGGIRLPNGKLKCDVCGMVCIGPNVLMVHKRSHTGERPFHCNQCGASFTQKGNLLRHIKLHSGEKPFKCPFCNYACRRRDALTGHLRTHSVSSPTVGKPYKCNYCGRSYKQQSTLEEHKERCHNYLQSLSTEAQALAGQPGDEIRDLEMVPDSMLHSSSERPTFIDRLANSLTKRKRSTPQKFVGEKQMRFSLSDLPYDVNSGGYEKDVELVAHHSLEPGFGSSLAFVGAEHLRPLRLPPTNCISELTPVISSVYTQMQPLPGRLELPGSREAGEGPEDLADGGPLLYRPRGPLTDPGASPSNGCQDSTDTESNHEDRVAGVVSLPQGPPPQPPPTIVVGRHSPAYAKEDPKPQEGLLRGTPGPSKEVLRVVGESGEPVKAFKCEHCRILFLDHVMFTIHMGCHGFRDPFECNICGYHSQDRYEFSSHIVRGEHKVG
T1 sequence (Q96SW2 whole entry): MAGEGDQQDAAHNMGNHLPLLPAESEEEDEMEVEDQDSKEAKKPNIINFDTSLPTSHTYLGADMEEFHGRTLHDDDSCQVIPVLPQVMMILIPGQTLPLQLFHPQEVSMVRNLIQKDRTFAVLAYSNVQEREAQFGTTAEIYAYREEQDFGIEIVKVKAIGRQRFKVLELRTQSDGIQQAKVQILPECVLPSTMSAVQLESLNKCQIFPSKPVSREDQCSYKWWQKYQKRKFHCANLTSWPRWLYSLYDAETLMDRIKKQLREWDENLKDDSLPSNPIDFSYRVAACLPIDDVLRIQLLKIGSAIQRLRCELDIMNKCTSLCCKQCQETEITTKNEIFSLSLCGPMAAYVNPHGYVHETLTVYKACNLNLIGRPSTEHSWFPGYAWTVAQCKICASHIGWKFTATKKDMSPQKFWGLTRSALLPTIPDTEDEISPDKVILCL
T1 sequence (Q16531 whole entry partner): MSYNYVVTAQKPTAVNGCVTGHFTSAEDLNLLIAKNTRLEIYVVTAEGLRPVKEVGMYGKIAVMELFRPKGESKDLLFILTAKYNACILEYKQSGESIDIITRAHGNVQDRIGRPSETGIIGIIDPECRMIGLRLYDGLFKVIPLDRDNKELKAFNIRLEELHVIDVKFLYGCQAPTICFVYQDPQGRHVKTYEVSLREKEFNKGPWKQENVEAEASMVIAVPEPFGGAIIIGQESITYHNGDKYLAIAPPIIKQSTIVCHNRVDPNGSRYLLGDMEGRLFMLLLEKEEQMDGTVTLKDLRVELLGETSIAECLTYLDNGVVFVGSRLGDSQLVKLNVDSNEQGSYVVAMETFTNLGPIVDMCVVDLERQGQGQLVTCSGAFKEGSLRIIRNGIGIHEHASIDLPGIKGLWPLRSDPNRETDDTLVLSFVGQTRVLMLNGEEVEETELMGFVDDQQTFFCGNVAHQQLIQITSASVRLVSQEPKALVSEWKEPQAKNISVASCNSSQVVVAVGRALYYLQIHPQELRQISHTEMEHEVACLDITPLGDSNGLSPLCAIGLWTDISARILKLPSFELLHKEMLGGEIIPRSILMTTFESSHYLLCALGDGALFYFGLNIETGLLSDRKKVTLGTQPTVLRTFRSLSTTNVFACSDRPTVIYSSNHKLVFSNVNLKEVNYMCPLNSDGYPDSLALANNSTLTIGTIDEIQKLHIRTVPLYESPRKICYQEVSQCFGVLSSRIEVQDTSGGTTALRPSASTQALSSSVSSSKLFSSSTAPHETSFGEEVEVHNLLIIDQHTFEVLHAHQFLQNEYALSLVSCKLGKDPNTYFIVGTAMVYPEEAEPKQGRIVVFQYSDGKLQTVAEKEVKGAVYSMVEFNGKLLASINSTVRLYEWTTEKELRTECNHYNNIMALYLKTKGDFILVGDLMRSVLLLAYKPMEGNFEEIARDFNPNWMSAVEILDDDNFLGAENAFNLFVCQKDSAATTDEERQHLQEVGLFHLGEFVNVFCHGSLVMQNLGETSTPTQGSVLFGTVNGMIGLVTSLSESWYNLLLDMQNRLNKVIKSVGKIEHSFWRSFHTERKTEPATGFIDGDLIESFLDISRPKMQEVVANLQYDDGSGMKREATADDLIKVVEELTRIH
IKZF2 Helios, sequence (Q9UKS7 whole entry): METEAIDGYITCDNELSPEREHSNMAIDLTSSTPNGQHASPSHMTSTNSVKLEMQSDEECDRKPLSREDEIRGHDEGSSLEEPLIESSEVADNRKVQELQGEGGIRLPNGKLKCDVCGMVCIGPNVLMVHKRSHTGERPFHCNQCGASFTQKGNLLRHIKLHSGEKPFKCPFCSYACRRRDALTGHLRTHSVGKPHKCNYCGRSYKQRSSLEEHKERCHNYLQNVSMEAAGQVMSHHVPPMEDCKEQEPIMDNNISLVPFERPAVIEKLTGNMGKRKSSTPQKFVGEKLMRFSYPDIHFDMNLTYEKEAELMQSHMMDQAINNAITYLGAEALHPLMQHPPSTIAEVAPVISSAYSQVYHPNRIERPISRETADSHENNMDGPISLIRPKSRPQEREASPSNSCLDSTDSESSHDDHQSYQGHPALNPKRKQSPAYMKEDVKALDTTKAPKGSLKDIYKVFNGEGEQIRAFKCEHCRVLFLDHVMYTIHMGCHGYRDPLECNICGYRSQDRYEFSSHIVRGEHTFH
IKZF2 Helios, sequence (Q96SW2 whole entry): as the sequence (Q96SW2 whole entry) above
IKZF2 Helios, sequence (Q16531 whole entry partner): as the sequence (Q16531 whole entry partner) above

Consider `O=C1CCC(n2cc(-c3ccccc3)oc2=O)C(=O)N1` (stereo not shown) [Comparative Compound A, 3-(2-oxo-5-phenyloxazol-3(2H)-yl)piperidine-2,6-dione], for which the “IKZF4 Eos max % deg. observed” value in assay [1] was determined as 0%. The Dmax in assay [2] amounted to 57%.

Take `Cc1cc(-c2ccc(-c3cn(C4CCC(=O)NC4=O)c(=O)o3)c(F)c2)nc(N)c1OC(F)F` (stereo not shown) [Example 1, 3-(5-(4-(6-Amino-5-(difluoromethoxy)-4-methylpyridin-2-yl)-2-fluorophenyl)-2-oxooxazol-3(2H)-yl)piperidine-2,6-dione]: the Dmax was 68 to 71% in assay [1] and 90% in assay [2]. Moreover, the “IKZF4 Eos max % deg. observed” value in assay [1] is given as 68-71%. The DC50 was determined as 0.45 nM in assay [1] (human Treg cells, concentration reducing protein level by 50% vs DMSO) and 0.68 nM in assay [2] (concentration reducing protein level by 50% vs DMSO).

Consider `O=C1CCC(n2cc(-c3ccc(Br)cc3F)oc2=O)C(=O)N1` (stereo not shown) [Comparative Compound B, 3-(5-(4-bromo-2-fluorophenyl)-2-oxooxazol-3(2H)-yl)piperidine-2,6-dione], for which the Dmax was at most 11% in assay [1] and 25% in assay [2]. Further, in assay [1], the “IKZF4 Eos max % deg. observed” value came out at 11%.
